# From ChEMBL document CHEMBL1138749, “N-Phenyl-4-pyrazolo[1,5-b]pyridazin-3-ylpyrimidin-2-amines as potent and selective inhibitors of glycogen synthase kinase 3 with good cellular efficacy” (J Med Chem, 2004)
# pEC50, pIC50: −log10 of the molar value.
# Target: Glycogen synthase kinase-3 beta (Rattus norvegicus, UniProt P18266)
# Assay: Effective concentration to increase glycogen deposition in rat skeletal muscle L6 myoblast cells
# Format: functional, cell-based
# Chain of Glycogen synthase kinase-3 beta (Rattus norvegicus, UniProt P18266) (P18266 whole entry): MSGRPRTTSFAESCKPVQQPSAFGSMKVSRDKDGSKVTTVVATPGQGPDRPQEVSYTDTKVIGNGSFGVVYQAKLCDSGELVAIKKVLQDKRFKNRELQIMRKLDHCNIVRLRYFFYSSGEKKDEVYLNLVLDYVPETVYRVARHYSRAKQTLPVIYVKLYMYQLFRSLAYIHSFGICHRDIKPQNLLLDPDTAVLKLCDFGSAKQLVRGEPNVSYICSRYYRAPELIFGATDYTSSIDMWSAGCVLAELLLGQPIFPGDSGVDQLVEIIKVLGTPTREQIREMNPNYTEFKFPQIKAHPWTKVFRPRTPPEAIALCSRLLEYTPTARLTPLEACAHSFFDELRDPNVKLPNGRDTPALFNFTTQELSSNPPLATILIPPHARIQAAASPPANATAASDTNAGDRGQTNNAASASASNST
row,SMILES,pEC50
1,Cc1cc(C)cc(Nc2nccc(-c3cnn4ncccc34)n2)c1,5.74
2,c1cnn2ncc(-c3ccnc(Nc4ccc5c(c4)OCCO5)n3)c2c1 [GW806290X],6.10
3,c1ccc(Nc2nccc(-c3cnn4ncccc34)n2)cc1,5.54
4,FC(F)(F)c1cc(Nc2nccc(-c3cnn4ncccc34)n2)ccc1Cl,6.00
5,COc1cccc(Nc2nccc(-c3cnn4ncccc34)n2)c1 [PYRAZOLOPYRIDAZINE 1],5.89

# Target: Cyclin-dependent kinase 2 (Homo sapiens, UniProt P24941)
row,SMILES,pIC50
1,Cc1ccc2c(-c3ccnc(Nc4ccc5c(c4)OCCO5)n3)c(-c3cccc(C(F)(F)F)c3)nn2n1,5.30
2,O=[N+]([O-])c1ccc(Nc2nccc(-c3cnn4ncccc34)n2)cc1,7.70
3,Fc1ccc(-c2nn3ncccc3c2-c2ccnc(Nc3ccc4c(c3)OCCO4)n2)cc1 [GW827099X],< 4.70
4,c1ccc(-c2ccc3c(-c4ccnc(Nc5ccc6c(c5)OCCO6)n4)cnn3n2)cc1,< 4.70
5,Oc1ccc2c(-c3ccnc(Nc4cccc(C(F)(F)F)c4)n3)cnn2n1,8.10
6,Cc1ccc2c(-c3ccnc(Nc4ccc5c(c4)OCCO5)n3)cnn2n1,8.22
7,COc1cccc(Nc2nccc(-c3cnn4nc(OC)ccc34)n2)c1,7.22
8,Cc1ccc2c(-c3ccnc(Nc4cccc(C(F)(F)F)c4)n3)cnn2n1,7.30
9,FC(F)(F)c1cccc(Nc2nccc(-c3c(-c4ccc(Cl)cc4)nn4ncccc34)n2)c1,< 4.70
10,Clc1ccc(-c2nn3ncccc3c2-c2ccnc(Nc3ccc4c(c3)OCCO4)n2)cc1,< 4.70
11,Clc1ccc(-c2nn3ncccc3c2-c2ccnc(Nc3ccccc3)n2)cc1 [GW829055X],< 4.70
12,Fc1ccc(Nc2nccc(-c3c(-c4cccc(C(F)(F)F)c4)nn4ncccc34)n2)cc1F,< 4.70
13,COc1cc(Nc2nccc(-c3cnn4nc(OC)ccc34)n2)cc(C(F)(F)F)c1,6.10
14,Fc1ccc(Nc2nccc(-c3c(-c4ccc(Cl)cc4)nn4ncccc34)n2)cc1F,< 4.70
15,N#Cc1ccc(Nc2nccc(-c3cnn4ncccc34)n2)cc1,9.00
16,Clc1ccc(Nc2nccc(-c3cnn4ncccc34)n2)cc1Cl,9.00
17,c1ccc(Nc2nccc(-c3c(C4CC4)nn4ncccc34)n2)cc1,5.40
18,Fc1ccc(-c2nn3ncccc3c2-c2ccnc(Nc3ccc(Cl)c(C(F)(F)F)c3)n2)cc1,< 4.70
19,COc1ccc2c(-c3ccnc(Nc4ccc([N+](=O)[O-])cc4)n3)cnn2n1,7.70
20,Cc1ccc2c(-c3ccnc(Nc4ccc(Cl)c(C(F)(F)F)c4)n3)c(-c3cccc(C(F)(F)F)c3)nn2n1,< 4.70
21,COc1ccc(-c2nn3ncccc3c2-c2ccnc(Nc3cccc(C(F)(F)F)c3)n2)cc1 [GW827105X],< 4.70
22,Cc1ccc2c(-c3ccnc(Nc4ccc5c(c4)OCCO5)n3)c(-c3ccccc3)nn2n1,< 4.70

row,SMILES,pIC50
1,FC(F)(F)c1ccc(-c2nn3ncccc3c2-c2ccnc(Nc3ccc(Cl)c(C(F)(F)F)c3)n2)cc1,< 4.70
2,c1ccc(Nc2nccc(-c3c(C4CCCCC4)nn4ncccc34)n2)cc1,< 4.70
3,COc1ccc2c(-c3ccnc(Nc4cc(C(F)(F)F)cc(C(F)(F)F)c4)n3)cnn2n1,< 4.70
4,FC(F)(F)c1cc(Nc2nccc(-c3c(-c4ccc(Cl)cc4)nn4ncccc34)n2)ccc1Cl,< 4.70
5,c1cnn2ncc(-c3ccnc(Nc4ccc5c(c4)OCCCO5)n3)c2c1,8.22
6,COc1ccc(-c2nn3ncccc3c2-c2ccnc(Nc3ccc(Cl)c(C(F)(F)F)c3)n2)cc1 [GW829115X],< 4.70
7,Cc1ccc2c(-c3ccnc(Nc4ccccc4)n3)c(-c3cccc(C(F)(F)F)c3)nn2n1,< 4.70
8,COc1ccc2c(-c3ccnc(Nc4cccc(C(F)(F)F)c4)n3)cnn2n1,6.80
9,Fc1cc(F)cc(Nc2nccc(-c3c(-c4ccccc4)nn4ncccc34)n2)c1,< 4.70
10,CCC(C)c1ccc(Nc2nccc(-c3cnn4ncccc34)n2)cc1 (configuration not stated),6.82
11,Cc1ccc2c(-c3ccnc(Nc4ccccc4)n3)c(-c3ccc(C(F)(F)F)cc3)nn2n1,< 4.70
12,CCOc1ccc2c(-c3ccnc(Nc4cc(OC)cc(C(F)(F)F)c4)n3)cnn2n1 [GW807982X],< 4.70
13,FC(F)(F)c1cc(Nc2nccc(-c3cnn4ncccc34)n2)ccc1Cl,8.00
14,FC(F)(F)c1cccc(-c2nn3ncccc3c2-c2ccnc(Nc3ccccc3)n2)c1,< 4.70
15,FC(F)(F)c1cccc(-c2nn3ncccc3c2-c2ccnc(Nc3ccc(Cl)c(C(F)(F)F)c3)n2)c1,< 4.70
16,Cc1ccc2c(-c3ccnc(Nc4ccc(F)c(F)c4)n3)c(-c3ccc(F)cc3)nn2n1,< 4.70
17,FC(F)(F)c1cc(Br)cc(Nc2nccc(-c3cnn4ncccc34)n2)c1,8.00
18,Cc1ccc2c(-c3ccnc(Nc4ccc(Cl)c(C(F)(F)F)c4)n3)c(-c3ccc(F)cc3)nn2n1,< 4.70
19,CCOc1ccc2c(-c3ccnc(Nc4cccc(C(F)(F)F)c4)n3)cnn2n1 [GW811761X],5.70
20,FC(F)(F)c1cc(Nc2nccc(-c3c(-c4ccccc4)nn4ncccc34)n2)ccc1Cl,< 4.70
21,CCCOc1ccc2c(-c3ccnc(Nc4cccc(C(F)(F)F)c4)n3)cnn2n1,5.90
22,c1ccc(-c2nn3ncccc3c2-c2ccnc(Nc3ccc4c(c3)OCCO4)n2)cc1,< 4.70

row,SMILES,pIC50
1,Cc1ccc2c(-c3ccnc(Nc4ccc5c(c4)OCCO5)n3)c(-c3ccc(F)cc3)nn2n1,< 4.70
2,COCCOc1cnn2ncc(-c3ccnc(Nc4cccc(OC)c4)n3)c2c1,< 4.70
3,COc1ccc(-c2nn3ncccc3c2-c2ccnc(Nc3ccc(F)c(F)c3)n2)cc1 [GW827396X],< 4.70
4,Cc1ccc2c(-c3ccnc(Nc4ccccc4)n3)c(-c3ccc(F)cc3)nn2n1 [GW833373X],< 4.70
5,Cc1ccc2c(-c3ccnc(Nc4ccc5c(c4)OCCO5)n3)c(-c3ccc(C(F)(F)F)cc3)nn2n1 [GW832467X],< 4.70
6,COc1ccc2c(-c3ccnc(Nc4ccc5c(c4)OCCO5)n3)cnn2n1,7.00
7,c1cnn2ncc(-c3ccnc(Nc4ccc5c(c4)OCO5)n3)c2c1,8.00
8,FC(F)(F)c1ccc(-c2nn3ncccc3c2-c2ccnc(Nc3ccc4c(c3)OCCO4)n2)cc1 [GW828525X],< 4.70
9,COc1cc(Nc2nccc(-c3cnn4nc(OC)ccc34)n2)cc(OC)c1,6.72
10,COc1ccc(-c2nn3ncccc3c2-c2ccnc(Nc3ccccc3)n2)cc1,< 4.70
11,Cc1ccc2c(-c3ccnc(Nc4ccc(Cl)c(C(F)(F)F)c4)n3)c(-c3ccccc3)nn2n1,< 4.70
12,Fc1ccc(-c2nn3ncccc3c2-c2ccnc(Nc3ccccc3)n2)cc1,< 4.70
13,Cc1ccc2c(-c3ccnc(Nc4ccc(C(F)(F)F)cc4)n3)cnn2n1,6.72
14,Fc1ccc(Nc2nccc(-c3c(-c4ccc(C(F)(F)F)cc4)nn4ncccc34)n2)cc1F [GW828529X],< 4.70
15,COc1cc(Nc2nccc(-c3cnn4nc(C)ccc34)n2)cc(C(F)(F)F)c1,7.70
16,COc1ccc2c(-c3ccnc(Nc4ccc(C#N)cc4)n3)cnn2n1,6.30
17,FC(F)(F)c1cccc(Nc2nccc(-c3cnn4nc(-c5ccccc5)ccc34)n2)c1 [GW819077X],5.60
18,Fc1ccc(Nc2nccc(-c3c(C4CCCCC4)nn4ncccc34)n2)cc1F,< 4.70
19,Cc1ccc2c(-c3ccnc(Nc4ccc(F)c(F)c4)n3)c(-c3cccc(C(F)(F)F)c3)nn2n1,< 4.70
20,Fc1ccc(-c2nn3ncccc3c2-c2ccnc(Nc3ccc(F)c(F)c3)n2)cc1,< 4.70
21,FC(F)(F)c1ccc(-c2nn3ncccc3c2-c2ccnc(Nc3cccc(C(F)(F)F)c3)n2)cc1,< 4.70
22,CC(C)c1ccc(Nc2nccc(-c3cnn4ncccc34)n2)cc1 [GW805758X],8.00

# Target: Glycogen synthase kinase-3 beta (Homo sapiens, UniProt P49841)
# Sequence (P49841 whole entry): as the sequence (P18266 whole entry) above, with M240V, P390T, A392T, T400A, A402T counted along it
# Description: Binding affinity for human glycogen synthase kinase 3 beta
row,SMILES,pIC50
1,Cc1ccc2c(-c3ccnc(Nc4ccc5c(c4)OCCO5)n3)c(-c3cccc(C(F)(F)F)c3)nn2n1,6.82
2,Fc1ccc(-c2nn3ncccc3c2-c2ccnc(Nc3ccc4c(c3)OCCO4)n2)cc1 [GW827099X],8.00
3,c1ccc(-c2ccc3c(-c4ccnc(Nc5ccc6c(c5)OCCO6)n4)cnn3n2)cc1,6.92
4,Oc1ccc2c(-c3ccnc(Nc4cccc(C(F)(F)F)c4)n3)cnn2n1,8.00
5,Cc1ccc2c(-c3ccnc(Nc4ccc5c(c4)OCCO5)n3)cnn2n1,8.00
6,COc1cccc(Nc2nccc(-c3cnn4nc(OC)ccc34)n2)c1,7.00
7,Cc1ccc2c(-c3ccnc(Nc4cccc(C(F)(F)F)c4)n3)cnn2n1,> 8.00
8,Clc1ccc(-c2nn3ncccc3c2-c2ccnc(Nc3ccc4c(c3)OCCO4)n2)cc1,6.10
9,Fc1ccc(Nc2nccc(-c3c(-c4cccc(C(F)(F)F)c4)nn4ncccc34)n2)cc1F,6.51
10,COc1cc(Nc2nccc(-c3cnn4nc(OC)ccc34)n2)cc(C(F)(F)F)c1,6.72
11,Fc1ccc(Nc2nccc(-c3c(-c4ccc(Cl)cc4)nn4ncccc34)n2)cc1F,6.00
12,Clc1ccc(Nc2nccc(-c3cnn4ncccc34)n2)cc1Cl,8.00
13,Fc1ccc(-c2nn3ncccc3c2-c2ccnc(Nc3ccc(Cl)c(C(F)(F)F)c3)n2)cc1,7.40
14,COc1ccc2c(-c3ccnc(Nc4ccc([N+](=O)[O-])cc4)n3)cnn2n1,7.15
15,Cc1ccc2c(-c3ccnc(Nc4ccc5c(c4)OCCO5)n3)c(-c3ccccc3)nn2n1,7.52
16,FC(F)(F)c1ccc(-c2nn3ncccc3c2-c2ccnc(Nc3ccc(Cl)c(C(F)(F)F)c3)n2)cc1,< 4.50
17,c1ccc(Nc2nccc(-c3c(C4CCCCC4)nn4ncccc34)n2)cc1,< 4.70
18,Cc1ccc2c(-c3ccnc(Nc4ccccc4)n3)c(-c3cccc(C(F)(F)F)c3)nn2n1,6.10
19,COc1ccc2c(-c3ccnc(Nc4cccc(C(F)(F)F)c4)n3)cnn2n1,7.30
20,Fc1cc(F)cc(Nc2nccc(-c3c(-c4ccccc4)nn4ncccc34)n2)c1,8.00
21,CCC(C)c1ccc(Nc2nccc(-c3cnn4ncccc34)n2)cc1 (configuration not stated),6.92
22,Cc1ccc2c(-c3ccnc(Nc4ccccc4)n3)c(-c3ccc(C(F)(F)F)cc3)nn2n1,< 4.50
23,CCOc1ccc2c(-c3ccnc(Nc4cc(OC)cc(C(F)(F)F)c4)n3)cnn2n1 [GW807982X],5.50

row,SMILES,pIC50
1,FC(F)(F)c1cccc(-c2nn3ncccc3c2-c2ccnc(Nc3ccccc3)n2)c1,6.82
2,FC(F)(F)c1cccc(-c2nn3ncccc3c2-c2ccnc(Nc3ccc(Cl)c(C(F)(F)F)c3)n2)c1,6.00
3,Cc1ccc2c(-c3ccnc(Nc4ccc(F)c(F)c4)n3)c(-c3ccc(F)cc3)nn2n1,8.00
4,Cc1ccc2c(-c3ccnc(Nc4ccc(Cl)c(C(F)(F)F)c4)n3)c(-c3ccc(F)cc3)nn2n1,7.30
5,CCOc1ccc2c(-c3ccnc(Nc4cccc(C(F)(F)F)c4)n3)cnn2n1 [GW811761X],6.72
6,FC(F)(F)c1cc(Nc2nccc(-c3c(-c4ccccc4)nn4ncccc34)n2)ccc1Cl,7.70
7,CCCOc1ccc2c(-c3ccnc(Nc4cccc(C(F)(F)F)c4)n3)cnn2n1,6.10
8,Cc1ccc2c(-c3ccnc(Nc4ccc5c(c4)OCCO5)n3)c(-c3ccc(F)cc3)nn2n1,8.00
9,COCCOc1cnn2ncc(-c3ccnc(Nc4cccc(OC)c4)n3)c2c1,7.10
10,Cc1ccc2c(-c3ccnc(Nc4ccccc4)n3)c(-c3ccc(F)cc3)nn2n1 [GW833373X],7.70
11,Cc1ccc2c(-c3ccnc(Nc4ccc5c(c4)OCCO5)n3)c(-c3ccc(C(F)(F)F)cc3)nn2n1 [GW832467X],< 4.50
12,COc1ccc2c(-c3ccnc(Nc4ccc5c(c4)OCCO5)n3)cnn2n1,7.52
13,FC(F)(F)c1ccc(-c2nn3ncccc3c2-c2ccnc(Nc3ccc4c(c3)OCCO4)n2)cc1 [GW828525X],< 4.50
14,COc1cc(Nc2nccc(-c3cnn4nc(OC)ccc34)n2)cc(OC)c1,6.92
15,Cc1ccc2c(-c3ccnc(Nc4ccc(Cl)c(C(F)(F)F)c4)n3)c(-c3ccccc3)nn2n1,7.00
16,Fc1ccc(-c2nn3ncccc3c2-c2ccnc(Nc3ccccc3)n2)cc1,7.70
17,Cc1ccc2c(-c3ccnc(Nc4ccc(C(F)(F)F)cc4)n3)cnn2n1,7.30
18,Fc1ccc(Nc2nccc(-c3c(-c4ccc(C(F)(F)F)cc4)nn4ncccc34)n2)cc1F [GW828529X],< 4.50
19,COc1cc(Nc2nccc(-c3cnn4nc(C)ccc34)n2)cc(C(F)(F)F)c1,8.00
20,COc1ccc2c(-c3ccnc(Nc4ccc(C#N)cc4)n3)cnn2n1,7.30
21,Fc1ccc(Nc2nccc(-c3c(C4CCCCC4)nn4ncccc34)n2)cc1F,< 4.70
22,FC(F)(F)c1ccc(-c2nn3ncccc3c2-c2ccnc(Nc3cccc(C(F)(F)F)c3)n2)cc1,< 4.50
23,CC(C)c1ccc(Nc2nccc(-c3cnn4ncccc34)n2)cc1 [GW805758X],7.52
